According to patent publication EP1675557B1, “COMPOSITION COMPRISING A SESQUITERPENE LACTONE” (Greenpharma, priority 2003, dated 2005):

Assays:
cellules de type Jurkat = assay: Apoptosis test on Jurkat cells, apoptosis induced by sodium arsenate, quantified by flow cytometry (propidium iodide); assay type: cell-based, humaine; conditions: apoptosis induced by 5 µM arséniate de sodium
Experimental: Les tests apoptotiques ont été réalisés sur des cellules de type Jurkat. La lignée cellulaire Jurkat (Clone E6-1, ATCC TIB 152), dérivée de cellule T humaine de leucémie aiguë, a été décrite dans la littérature (Weiss A. et al, Journal of Immunology, 1984, 133, 123). Les cellules ont été incubées dans un milieu de culture en présence 1 µL d'arséniate de sodium. La concentration finale en arséniate de sodium dans le milieu de culture est de 5 µM. Afin de tester l'inhibition de l'apoptose induite par l'arséniate de sodium, les cellules ont été cultivées soit en absence (témoin) soit en présence de vulgarine 2,6 µM ou d'un de ses dérivés.
L'apoptose a été quantifiée par cytometrie en flux. Les cellules sont rendues perméables et leurs noyaux sont teintés avec de l'iodure de propidium en présence de ribonucléase. Un minimum de 3000 cellules ont été analysées afin de quantifier l'apoptose cellulaire (Hotz M.A. et al, Cytometry, 1994, 15, 237).

[1] = test system: PBMCs (lymphocytes et monocytes) ou du sang total; assay: Cell viability test (XTT, mitochondrial dehydrogenase); conditions: relative to control of activated cells
Experimental: (§1) Les tests ont été réalisés sur des PBMCs (lymphocytes et monocytes) ou du sang total de donneurs sains humains. Tous les prélèvements ont été réalisés au Service d'Hépato-Gastroentérologie et d'Assistance Nutritive des Hôpitaux Universitaires de Strasbourg (Hôpital de Hautepierre), après approbation du protocole d'étude concernant les effets du célastrol par le CCPPRB n°1 d'Alsace.
(§2) Chez des volontaires sains, 20 ml de sang veineux périphérique sont prélevés le matin à jeun sur héparine. Le sang est ensuite dilué au demi dans de la solution saline équilibrée de Hank's dépourvue en Ca^2+ et en Mg^2+ (HBSS-CMF, Gibco BRL, Cergy, France) additionnée de 100 UI/ml de streptomycine (Biochrom KG, Berlin, Allemagne) et de 100 UI/ml de pénicilline (Biochrom KG). Les PBMCs (lymphocytes et monocytes) sont alors séparées par centrifugation sur Ficoll-Histopaque de densité 1,076 (Sigma, L'Isle d'Abeau-Chesnes, France) (30 min à 400 g) puis, après deux lavages dans du HBSS-CMF additionné d'antibiotiques (10 min à 250 g), resuspendues dans du milieu RPMI 1640 (Gibco BRL) additionné de 10 % (volume/volume) de sérum foetal de veau (SFV) inactivé à la chaleur (56°C, 30 min, Gibco BRL) et d'antibiotiques. Après comptage à la cellule de Malassez, les cellules sont incubées à raison de 2 x 10^5 cellules/puits de 1 ml dans des plaques de 24 puits (Corning Inc., New York, USA) à 37°C dans un incubateur humidifié (air 95 % - CO2 5 %), en présence ou en absence des molécules étudiées préparées dans du DMSO (diméthyl sulfoxyde, Sigma ; maximum : 1 % (v/v) par puit), avec ou sans activation par du lipopolysaccharide de Salmonella abortus equi (LPS, 5 µg/ml) (Sigma) et de la phytohémagglutinine (PHA, 1 µg/ml) (Sigma) ajoutés à T0. Après 24 heures d'incubation, les plaques sont centrifugées (15 min à 200 g), et les surnageants prélevés puis congelés à -80°C jusqu'au dosage.
(§3) La technique est basée sur le clivage par la déshydrogénase mitochondriale d'un sel de tétrazolium de couleur jaune en formazan de couleur orange. Les culots cellulaires (PBMCs et sang total) contenus dans les plaques de culture sont resuspendus dans du RPMI 1640 additionné d'hydroxide 2,3-bis-(2-méthoxy-4-nitro-5-sulfophényl)-5-[(phénylamino)carbonyl]-2H-tétrazolium (XTT, 1 mg/ml, Sigma), et de méthosulfate de phénazine (1,25 mM, Sigma), catalyseur de la réaction. Les plaques sont incubées 4 à 24 heures, puis lues en absorbance à 450 nm (filtre de référence : 620 nm). La viabilité cellulaire est estimée par rapport au témoin de cellules activées.

in vitro = conditions: human, pbmcs or whole blood
Experimental: as §1, §2, §3

Row | Compound | pourcentage d'inhibition de l'apoptose (cellules de type Jurkat; 2,6 µM) [%] | Pourcentage de viabilité cellulaire ([1]; Concentration 0,01 µM, 0.01 µM) [%] | Pourcentage de viabilité cellulaire ([1]; Concentration 0,1 µM, 0.1 µM) [%] | Pourcentage de viabilité cellulaire ([1]; Concentration 1 µM) [%] | Pourcentage de viabilité cellulaire ([1]; Concentration 10 µM) [%] | Pourcentage de viabilité cellulaire ([1]; Concentration 30 µM) [%] | viability at 0.01 µM (in vitro) [%] | viability at 0.1 µM (in vitro) [%] | viability at 1 µM (in vitro) [%] | viability at 10 µM (in vitro) [%] | viability at 30 µM (in vitro) [%] | inhibition at 2.6 µM (cellules de type Jurkat; Homo sapiens, 2,6 µM, read-out: pourcentage d'inhibition de l'apoptose) [%]
1 | 4-épivulgarine | ~100 | 105 | 103 | 99 | 103 | 100 | – | – | – | – | – | –
2 | CC1C(=O)OC2C1CCC1(C)C(=O)CCC(C)(O)C21 (centres unmarked) [2,3-dihydrovulgarine] | – | – | – | – | – | – | 110 | 104 | 105 | 108 | 105 | –
3 | CC1C(=O)OC2C1CCC1(C)C(=O)C=CC(C)(O)C21 (centres unmarked) [Vulgarine, vulgarine] | – | – | – | – | – | – | 112 | 102 | 119 | 104 | 102 | ~100
